Laboratory results: US20050124559A1, “Antimicrobial agent” (priority 2002, published 2005)

Key:
Assay type in all cases: cell-based
[1] = test system: Bacillus subtilis; experiment: Zone Inhibition Assay; design: key: +++=large zone of inhibition; −=no zone of inhibition; conditions: 3 μL of a 10 μg/mL sample on a filter disc on a lawn of bacteria, arbitrary scale
Protocol: (§1) Inhibition of various bacteria by compound 1 (n=6, and n=4) are described in Table 2. The biological data were determined by a Zone Inhibition Assay method. The zone of inhibition was measured using an arbitrary scale: (+++=large zone of inhibition, −=no zone of inhibition). Compound 1 (n=6, and n=4) were tested by spotting 3 μL of a 10 μg/mL sample onto a filter disc which was placed on a lawn of bacteria. N.B. Compound 1 (n=8) was used as a positive control.

[2] = test system: Enterococcus faecalis; experiment: Zone Inhibition Assay; design: key: +++=large zone of inhibition; −=no zone of inhibition; conditions: 3 μL of a 10 μg/mL sample on a filter disc on a lawn of bacteria, arbitrary scale
Protocol: as §1

[3] = test system: Mycobacterium smegmatis; experiment: Zone Inhibition Assay; design: key: +++=large zone of inhibition; −=no zone of inhibition; conditions: 3 μL of a 10 μg/mL sample on a filter disc on a lawn of bacteria, arbitrary scale
Protocol: as §1

[4] = test system: Staphylococcus aureus; experiment: Zone Inhibition Assay; design: key: +++=large zone of inhibition; −=no zone of inhibition; conditions: 3 μL of a 10 μg/mL sample on a filter disc on a lawn of bacteria, arbitrary scale
Protocol: as §1

[5] = test system: Enterococci sp.; experiment: MIC by BACTEC or Mueller-Hinton agar method
Protocol: (§2) Inhibition of various bacteria by compound 1 (n=8) is described in Table 1. The biological data were determined by either the BACTEC or Mueller-Hinton agar method and expressed as a minimum inhibitory concentration (MIC).

[6] = test system: M. abscessus; experiment: MIC by BACTEC or Mueller-Hinton agar method
Protocol: as §2

[7] = test system: M. avium intracellulare; experiment: MIC by BACTEC or Mueller-Hinton agar method
Protocol: as §2

[8] = test system: M. fortuitum; experiment: MIC by BACTEC or Mueller-Hinton agar method
Protocol: as §2

[9] = test system: Mycobacterium tuberculosis; experiment: MIC by BACTEC or Mueller-Hinton agar method
Protocol: as §2

[10] = test system: N. nova; experiment: MIC by BACTEC or Mueller-Hinton agar method
Protocol: as §2

[11] = test system: Nocardia asteroides; experiment: MIC by BACTEC or Mueller-Hinton agar method
Protocol: as §2

[12] = test system: Rapid Growing Atypical Mycobacterial Strains; experiment: MIC by BACTEC or Mueller-Hinton agar method
Protocol: as §2

[13] = test system: S. aureus (Coagulas-negative); experiment: MIC by BACTEC or Mueller-Hinton agar method
Protocol: as §2

[14] = test system: Staphylococcus aureus; experiment: MIC by BACTEC or Mueller-Hinton agar method
Protocol: as §2

Compound	Zone of Inhibition [1]	Zone of Inhibition [2]	Zone of Inhibition [3]	Zone of Inhibition [4]	MIC [5]	MIC [6]	MIC [7]	MIC [8]	MIC [9]	MIC [10]	MIC [11]	MIC [12]	MIC [13]	MIC [14]
CCCCCCCCN(CCCCCCCC)S[C@@H]1O[C@@H]([C@H](O)CO)[C@H](O)[C@H]1O [1 (n=6), N,N-Dioctyl-S-(1-thio-β-D-galactofuranosyl)sulfenamide]	+++	+++	+++	+++	–	–	–	–	–	–	–	–	–	–
CCCCCCCCCCN(CCCCCCCCCC)S[C@@H]1O[C@@H]([C@H](O)CO)[C@H](O)[C@H]1O [Compound 1 (n=8), N,N-Didecyl-S-(1-thio-β-D-galactofuranosyl)sulfenamide]	–	–	–	–	5 to 50 µg/mL	<5 µg/mL	<5 µg/mL	<5 µg/mL	<5 µg/mL	<5 µg/mL	<5 µg/mL	<5 µg/mL	5 to 50 µg/mL	5 to 50 µg/mL
